Patent publication US6525001B1, “Substituted pyrimidine and pyridine herbicides” (Mid-American Commercialization Corporation, priority 1997, dated 2003)

Legend:
Assay in all cases: Test B pre-/postemergence
Assay type in all cases: in vivo
Set-up in all cases: key: 0 is no effect; 10 is complete control
[1] = system: giant foxtail (Setaria faberii)
Method in brief: (§1)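 Seeds were planted and sprayed preemergence, while plants at 2 to 18 cm (1- to 4-leaf stage) were sprayed postemergence at the same time, with test chemical in a non-phytotoxic solvent mixture containing surfactant. After twelve to sixteen days in a greenhouse, injury was rated visually against untreated controls on a 0–10 scale.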

[2] = system: broadleaf signalgrass (Brachiaria decumbens)
Method in brief: as §1

[3] = system: blackgrass (Alopecurus myosuroides)
Method in brief: as §1

[4] = system: wheat (Triticum aestivum)
Method in brief: as §1

wild oat (Avena fatua) = system: wild oat (Avena fatua)
Method in brief: as §1

[5] = system: momingglory (Ipomoea hederacea)
Method in brief: as §1

[6] = system: bedstraw (Galium aparine)
Method in brief: as §1

[7] = system: cocklebur (Xanthium strumarium)
Method in brief: as §1

[8] = system: velvetleaf (Abutilon theophrasti)
Method in brief: as §1

[9] = system: crabgrass (Digitaria sanguinalis)
Method in brief: as §1

[10] = system: sugar beet (Beta vulgaris)
Method in brief: as §1

[11] = system: pigweed (Amaranthus retroflexus)
Method in brief: as §1

[12] = system: purple nutsedge (Cyperus rotundus)
Method in brief: as §1

corn (Zea mays) = system: corn (Zea mays)
Method in brief: as §1

In the case of Cc1cnc(-c2ccc(C(F)(F)F)cc2)nc1Cn1cnc(C(F)(F)F)c1 [Compound 10], the “Plant response rating, Giant foxtail” value ([1]; Rate 62 g/ha, Postemergence) is reported as 2, the “Giant foxtail plant response rating” value ([1]; Rate 62 g/ha, Preemergence) is reported as 3 and the “Plant response rating, Giant foxtail” value ([1]; Rate 125 g/ha, Postemergence) is reported as 2. The “Giant foxtail plant response rating” value ([1]; Rate 125 g/ha, Preemergence) was 7, the “Plant response rating, Giant foxtail” value ([1]; Rate 250 g/ha, Postemergence) was 4 and the “Plant response rating, Giant foxtail” value ([1]; Rate 250 g/ha, Preemergence) was 8. The “Plant response rating, Giant foxtail” value ([1]; Rate 500 g/ha, Postemergence) was 5, the “Plant response rating, Giant foxtail” value ([1]; Rate 500 g/ha, Preemergence) was 9 and the “Plant response rating, B. signalgrass” value ([2]; Rate 62 g/ha, Postemergence) was 2. For the same compound, the “B. signalgrass plant response rating” value ([2]; Rate 62 g/ha, Preemergence) was 1, the “Plant response rating, B. signalgrass” value ([2]; Rate 125 g/ha, Postemergence) was 3 and the “B. signalgrass plant response rating” value ([2]; Rate 125 g/ha, Preemergence) was 1. The “Plant response rating, B. signalgrass” value ([2]; Rate 250 g/ha, Postemergence) was 3, the “Plant response rating, B. signalgrass” value ([2]; Rate 250 g/ha, Preemergence) was 2 and the “Plant response rating, B. signalgrass” value ([2]; Rate 500 g/ha, Postemergence) was 3. The “Plant response rating, B. signalgrass” value ([2]; Rate 500 g/ha, Preemergence) was 4, the “Plant response rating, Blackgrass” value ([3]; Rate 62 g/ha, Postemergence) was 1 and the “Blackgrass plant response rating” value ([3]; Rate 62 g/ha, Preemergence) was 1. For the same compound, the “Plant response rating, Blackgrass” value ([3]; Rate 125 g/ha, Postemergence) was 1, the “Blackgrass plant response rating” value ([3]; Rate 125 g/ha, Preemergence) was 2 and the “Plant response rating, Blackgrass” value ([3]; Rate 250 g/ha, Postemergence) was 3. For the same compound, the “Plant response rating, Blackgrass” value ([3]; Rate 250 g/ha, Preemergence) was 2, the “Plant response rating, Blackgrass” value ([3]; Rate 500 g/ha, Postemergence) was 3 and the “Plant response rating, Blackgrass” value ([3]; Rate 500 g/ha, Preemergence) was 3. For the same compound, the “Plant response rating, Wheat” value ([4]; Rate 62 g/ha, Postemergence) was 2, the “Wheat plant response rating” value ([4]; Rate 62 g/ha, Preemergence) was 0 and the “Plant response rating, Wheat” value ([4]; Rate 125 g/ha, Postemergence) was 3. For the same compound, the “Wheat plant response rating” value ([4]; Rate 125 g/ha, Preemergence) was 0, the “Plant response rating, Wheat” value ([4]; Rate 250 g/ha, Postemergence) was 3 and the “Plant response rating, Wheat” value ([4]; Rate 250 g/ha, Preemergence) was 0. The “Plant response rating, Wheat” value ([4]; Rate 500 g/ha, Postemergence) was 3, the “Plant response rating, Wheat” value ([4]; Rate 500 g/ha, Preemergence) was 1 and the “Plant response rating, Wild oats” value (wild oat (Avena fatua); Rate 62 g/ha, Postemergence) was 2. The “Wild oats plant response rating” value (wild oat (Avena fatua); Rate 62 g/ha, Preemergence) was 0, the “Plant response rating, Wild oats” value (wild oat (Avena fatua); Rate 125 g/ha, Postemergence) was 2 and the “Wild oats plant response rating” value (wild oat (Avena fatua); Rate 125 g/ha, Preemergence) was 1. The “Plant response rating, Wild oats” value (wild oat (Avena fatua); Rate 250 g/ha, Postemergence) was 2, the “Plant response rating, Wild oats” value (wild oat (Avena fatua); Rate 250 g/ha, Preemergence) was 2 and the “Plant response rating, Wild oats” value (wild oat (Avena fatua); Rate 500 g/ha, Postemergence) was 3. The “Plant response rating, Wild oats” value (wild oat (Avena fatua); Rate 500 g/ha, Preemergence) was 4, the “Plant response rating, Morningglory” value ([5]; Rate 62 g/ha, Postemergence) was 5 and the “Morningglory plant response rating” value ([5]; Rate 62 g/ha, Preemergence) was 2. The “Plant response rating, Morningglory” value ([5]; Rate 125 g/ha, Postemergence) was 7, the “Morningglory plant response rating” value ([5]; Rate 125 g/ha, Preemergence) was 3 and the “Plant response rating, Morningglory” value ([5]; Rate 250 g/ha, Postemergence) was 7. The “Plant response rating, Morningglory” value ([5]; Rate 250 g/ha, Preemergence) was 9, the “Plant response rating, Morningglory” value ([5]; Rate 500 g/ha, Postemergence) was 9 and the “Plant response rating, Morningglory” value ([5]; Rate 500 g/ha, Preemergence) was 10. The “Plant response rating, Bedstraw” value ([6]; Rate 62 g/ha, Postemergence) was 8, the “Bedstraw plant response rating” value ([6]; Rate 62 g/ha, Preemergence) was 3 and the “Plant response rating, Bedstraw” value ([6]; Rate 125 g/ha, Postemergence) was 9. For the same compound, the “Bedstraw plant response rating” value ([6]; Rate 125 g/ha, Preemergence) was 7, the “Plant response rating, Bedstraw” value ([6]; Rate 250 g/ha, Postemergence) was 10 and the “Plant response rating, Bedstraw” value ([6]; Rate 250 g/ha, Preemergence) was 7. For the same compound, the “Plant response rating, Bedstraw” value ([6]; Rate 500 g/ha, Postemergence) was 10, the “Plant response rating, Bedstraw” value ([6]; Rate 500 g/ha, Preemergence) was 10 and the “Plant response rating, Cocklebur” value ([7]; Rate 62 g/ha, Postemergence) was 6. The “Plant response rating, Cocklebur” value ([7]; Rate 125 g/ha, Postemergence) was 8, the “Plant response rating, Cocklebur” value ([7]; Rate 250 g/ha, Postemergence) was 9 and the “Plant response rating, Cocklebur” value ([7]; Rate 250 g/ha, Preemergence) was 1. The “Plant response rating, Cocklebur” value ([7]; Rate 500 g/ha, Postemergence) was 9, the “Plant response rating, Cocklebur” value ([7]; Rate 500 g/ha, Preemergence) was 3 and the “Plant response rating, Velvetleaf” value ([8]; Rate 62 g/ha, Postemergence) was 6. For the same compound, the “Velvetleaf plant response rating” value ([8]; Rate 62 g/ha, Preemergence) was 5, the “Plant response rating, Velvetleaf” value ([8]; Rate 125 g/ha, Postemergence) was 7 and the “Velvetleaf plant response rating” value ([8]; Rate 125 g/ha, Preemergence) was 7. The “Plant response rating, Velvetleaf” value ([8]; Rate 250 g/ha, Postemergence) was 8, the “Plant response rating, Velvetleaf” value ([8]; Rate 250 g/ha, Preemergence) was 8 and the “Plant response rating, Velvetleaf” value ([8]; Rate 500 g/ha, Postemergence) was 9. The “Plant response rating, Velvetleaf” value ([8]; Rate 500 g/ha, Preemergence) was 8, the “Plant response rating, Crabgrass” value ([9]; Rate 62 g/ha, Postemergence) was 2 and the “Crabgrass plant response rating” value ([9]; Rate 62 g/ha, Preemergence) was 5. The “Plant response rating, Crabgrass” value ([9]; Rate 125 g/ha, Postemergence) was 2, the “Crabgrass plant response rating” value ([9]; Rate 125 g/ha, Preemergence) was 7 and the “Plant response rating, Crabgrass” value ([9]; Rate 250 g/ha, Postemergence) was 4. For the same compound, the “Plant response rating, Crabgrass” value ([9]; Rate 250 g/ha, Preemergence) was 9, the “Plant response rating, Crabgrass” value ([9]; Rate 500 g/ha, Postemergence) was 6 and the “Plant response rating, Crabgrass” value ([9]; Rate 500 g/ha, Preemergence) was 9. The “Plant response rating, Sugarbeets” value ([10]; Rate 62 g/ha, Postemergence) was 8, the “Sugarbeets plant response rating” value ([10]; Rate 62 g/ha, Preemergence) was 6 and the “Plant response rating, Sugarbeets” value ([10]; Rate 125 g/ha, Postemergence) was 8. The “Plant response rating, Sugarbeets” value ([10]; Rate 250 g/ha, Postemergence) was 9, the “Plant response rating, Sugarbeets” value ([10]; Rate 250 g/ha, Preemergence) was 6 and the “Plant response rating, Sugarbeets” value ([10]; Rate 500 g/ha, Postemergence) was 9. The “Plant response rating, Sugarbeets” value ([10]; Rate 500 g/ha, Preemergence) was 10, the “Plant response rating, Redroot pigweed” value ([11]; Rate 62 g/ha, Postemergence) was 9 and the “Redroot pigweed plant response rating” value ([11]; Rate 62 g/ha, Preemergence) was 3. The “Plant response rating, Redroot pigweed” value ([11]; Rate 125 g/ha, Postemergence) was 9, the “Redroot pigweed plant response rating” value ([11]; Rate 125 g/ha, Preemergence) was 6 and the “Plant response rating, Redroot pigweed” value ([11]; Rate 250 g/ha, Postemergence) was 9. For the same compound, the “Plant response rating, Redroot pigweed” value ([11]; Rate 250 g/ha, Preemergence) was 7, the “Plant response rating, Redroot pigweed” value ([11]; Rate 500 g/ha, Postemergence) was 9 and the “Plant response rating, Redroot pigweed” value ([11]; Rate 500 g/ha, Preemergence) was 7. The “Plant response rating, Nutsedge” value ([12]; Rate 62 g/ha, Postemergence) was 0, the “Nutsedge plant response rating” value ([12]; Rate 62 g/ha, Preemergence) was 0 and the “Plant response rating, Nutsedge” value ([12]; Rate 125 g/ha, Postemergence) was 0. The “Nutsedge plant response rating” value ([12]; Rate 125 g/ha, Preemergence) was 0, the “Plant response rating, Nutsedge” value ([12]; Rate 250 g/ha, Postemergence) was 0 and the “Plant response rating, Nutsedge” value ([12]; Rate 250 g/ha, Preemergence) was 0. The “Plant response rating, Nutsedge” value ([12]; Rate 500 g/ha, Postemergence) was 3, the “Plant response rating, Nutsedge” value ([12]; Rate 500 g/ha, Preemergence) was 0 and the “Plant response rating, Corn” value (corn (Zea mays); Rate 62 g/ha, Postemergence) was 2. For the same compound, the “Corn plant response rating” value (corn (Zea mays); Rate 62 g/ha, Preemergence) was 0, the “Plant response rating, Corn” value (corn (Zea mays); Rate 125 g/ha, Postemergence) was 2 and the “Corn plant response rating” value (corn (Zea mays); Rate 125 g/ha, Preemergence) was 0. For the same compound, the “Plant response rating, Corn” value (corn (Zea mays); Rate 250 g/ha, Postemergence) was 3, the “Plant response rating, Corn” value (corn (Zea mays); Rate 250 g/ha, Preemergence) was 0 and the “Plant response rating, Corn” value (corn (Zea mays); Rate 500 g/ha, Postemergence) was 3. The “Plant response rating, Corn” value (corn (Zea mays); Rate 500 g/ha, Preemergence) was 1.
